The record followed here is patent US20210300936A1, “PYRAZOLOTRIAZOLOPYRIMIDINE DERIVATIVES AS A2A RECEPTOR ANTAGONIST” (BEIGENE, LTD., priority 2018, published 2021).

The experiment addresses human A2A receptor (A2AR) (Homo sapiens, UniProt P29274). As to the kind of experiment: Luciferase reporter assay (HEK293-A2AR-luc2p/CRE/Hygro cells, 3 nM CGS21680). The note with it: 3 nM CGS21680, 5 h incubation. Type of experiment: cell-based. An outline of the steps: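 Antagonist (0.1–10000 nM) and 3 nM CGS21680 were co-added for 5 h to stable HEK293-A2AR-luc2p/CRE cells, 18 h after seeding in 1% FBS medium containing adenosine deaminase. Luminescence was normalized to agonist alone (100%), and IC50 came from the dose–inhibition curve.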

human A2A receptor (A2AR), sequence (P29274 whole entry): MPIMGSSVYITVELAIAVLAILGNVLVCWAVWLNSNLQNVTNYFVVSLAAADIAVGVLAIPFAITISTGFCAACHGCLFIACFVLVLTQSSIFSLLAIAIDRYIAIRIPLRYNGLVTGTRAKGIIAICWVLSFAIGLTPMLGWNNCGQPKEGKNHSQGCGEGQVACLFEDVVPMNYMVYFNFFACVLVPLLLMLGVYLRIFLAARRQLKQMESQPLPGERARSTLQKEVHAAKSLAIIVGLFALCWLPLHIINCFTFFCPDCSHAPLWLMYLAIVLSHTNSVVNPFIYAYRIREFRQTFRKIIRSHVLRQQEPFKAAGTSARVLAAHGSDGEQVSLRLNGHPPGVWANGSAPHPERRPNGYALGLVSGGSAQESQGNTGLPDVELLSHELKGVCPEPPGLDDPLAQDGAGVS

The term IC50 denotes the concentration needed to halve the response being measured. Read a high IC50 as weaker potency in that assay. In turn, `CC(C)CC(C(=O)N1CCN(c2ccc(F)cc2F)CC1)n1cc2c(nc(N)n3nc(-c4ccco4)nc23)n1` (stereo not drawn) [Compound C23, 2-(5-amino-2-(furan-2-yl)-8H-pyrazolo[4,3-e][1,2,4]triazolo[1,5-c]pyrimidin-8-yl)-1-(4-(2,4-difluorophenyl)piperazin-1-yl)-4-methylpentan-1-one] had an IC50 of 69.6 nM. For the compound `COCCOCCOc1ccc(N2CCN(C(=O)C(C)n3ncc4c3nc(N)n3nc(-c5ccco5)nc43)CC2)cc1` (stereo not drawn) [Compound A9, 2-(5-amino-2-(furan-2-yl)-7H-pyrazolo[4,3-e][1,2,4]triazolo[1,5-c]pyrimidin-7-yl)-1-(4-(4-(2-(2-methoxyethoxy)ethoxy)phenyl)piperazin-1-yl)propan-1-one], the IC50 came out at 59.1 nM. As for `COCCOCCOc1ccc(N2CCN(C(=O)C(COC)n3ncc4c3nc(N)n3nc(-c5ccco5)nc43)CC2)cc1` (stereo not drawn) [Compound A27, 2-(5-amino-2-(furan-2-yl)-7H-pyrazolo[4,3-e][1,2,4]triazolo[1,5-c]pyrimidin-7-yl)-3-methoxy-1-(4-(4-(2-(2-methoxyethoxy)ethoxy)phenyl)piperazin-1-yl)propan-1-one], the IC50 amounted to 39.4 nM. Compound `Nc1nc2c(cnn2C(C(=O)N2CCc3ccc(Cl)cc3C2)c2ccccc2)c2nc(-c3ccco3)nn12` (stereo not drawn) [Compound B5, 2-(5-amino-2-(furan-2-yl)-7H-pyrazolo[4,3-e][1,2,4]triazolo[1,5-c]pyrimidin-7-yl)-1-(7-chloro-3,4-dihydroisoquinolin-2(1H)-yl)-2-phenylethan-1-one] gave a half-inhibitory concentration (IC50) of 3 nM. In the case of `COCCOc1ccc(N2CCN(C(=O)[C@](C)(c3ccccc3)n3ncc4c3nc(N)n3nc(-c5ccco5)nc43)CC2)cc1F` [Compound A66a, (S)-2-(5-amino-2-(furan-2-yl)-7H-pyrazolo[4,3-e][1,2,4]triazolo[1,5-c]pyrimidin-7-yl)-1-(4-(3-fluoro-4-(2-methoxyethoxy)phenyl)piperazin-1-yl)-2-phenylpropan-1-one], the IC50 was determined as 16.8 nM. In the case of `CCCCC(C(=O)N1CCN(c2ccc(OCCOC)cc2)CC1)n1cc2c(nc(N)n3nc(-c4ccco4)nc23)n1` (stereo not drawn) [Compound C10, 2-(5-amino-2-(furan-2-yl)-8H-pyrazolo[4,3-e][1,2,4]triazolo[1,5-c]pyrimidin-8-yl)-1-(4-(4-(2-methoxyethoxy)phenyl)piperazin-1-yl)hexan-1-one], the IC50 was 126 nM. The value for `COc1ccc(N2CCN(C(=O)C(C)(c3ccccc3)n3ncc4c3nc(N)n3nc(-c5ccco5)nc43)CC2)c(OC)c1` (stereo not drawn) [Compound A105, 2-(5-amino-2-(furan-2-yl)-7H-pyrazolo[4,3-e][1,2,4]triazolo[1,5-c]pyrimidin-7-yl)-1-(4-(2,4-dimethoxyphenyl)piperazin-1-yl)-2-phenylpropan-1-one] was 10.3 nM; that for `COCCOc1ccc(N2CCN(C(=O)C(c3ccccc3OC)n3ncc4c3nc(N)n3nc(-c5ccco5)nc43)CC2)cc1` (single isomer, unassigned) [Compound A31a] was 8.1 nM. The compound `Nc1nc2c(cnn2C(C(=O)N2CCN(c3ccc(F)cc3F)CC2)c2ccccc2)c2nc(-c3ccco3)nn12` (stereo not drawn) [Compound A48, 2-(5-amino-2-(furan-2-yl)-7H-pyrazolo[4,3-e][1,2,4]triazolo[1,5-c]pyrimidin-7-yl)-1-(4-(2,4-difluorophenyl)piperazin-1-yl)-2-phenylethan-1-one] yielded an IC50 of 1.6 nM. Compound `COCCOCCOc1ccc(N2CCN(C(=O)C(C3CC3)n3ncc4c3nc(N)n3nc(-c5ccco5)nc43)CC2)cc1` (stereo not drawn) [Compound A21, 2-(5-amino-2-(furan-2-yl)-7H-pyrazolo[4,3-e][1,2,4]triazolo[1,5-c]pyrimidin-7-yl)-2-cyclopropyl-1-(4-(4-(2-(2-methoxyethoxy)ethoxy)phenyl)piperazin-1-yl)ethan-1-one] showed an IC50 of 21.6 nM.

In the case of `COCCOc1ccc(N2CCN(C(=O)C(Cc3ccccc3)n3ncc4c3nc(N)n3nc(-c5ccco5)nc43)CC2)cc1` (stereo not drawn) [Compound A19, 2-(5-amino-2-(furan-2-yl)-7H-pyrazolo[4,3-e][1,2,4]triazolo[1,5-c]pyrimidin-7-yl)-1-(4-(4-(2-methoxyethoxy)phenyl)piperazin-1-yl)-3-phenylpropan-1-one], the half-maximal inhibitory concentration (IC50) came out at 6.5 nM. The same measure for `CC(C(=O)N1CCN(c2ccc(OCCN3CCCC3)cc2)CC1)(c1ccccc1)n1ncc2c1nc(N)n1nc(-c3ccco3)nc21` (stereo not drawn) [Compound A101, 2-(5-amino-2-(furan-2-yl)-7H-pyrazolo[4,3-e][1,2,4]triazolo[1,5-c]pyrimidin-7-yl)-2-phenyl-1-(4-(4-(2-(pyrrolidin-1-yl)ethoxy)phenyl)piperazin-1-yl)propan-1-one]: 3.9 nM; for `COCCOc1ccc(N2CCN(C(=O)C(c3ccccc3)n3ncc4c3nc(N)n3nc(-c5ccco5)nc43)[C@@H](C)C2)cc1` (stereo partly drawn) [Compound A52, 2-(5-amino-2-(furan-2-yl)-7H-pyrazolo[4,3-e][1,2,4]triazolo[1,5-c]pyrimidin-7-yl)-1-((S)-4-(4-(2-methoxyethoxy)phenyl)-2-methylpiperazin-1-yl)-2-phenylethan-1-one]: 8.7 nM. The same measure for `CN(C)C(=O)C(c1ccccc1)n1ncc2c1nc(N)n1nc(-c3ccco3)nc21` (stereo not drawn) [Compound B1, 2-(5-amino-2-(furan-2-yl)-7H-pyrazolo[4,3-e][1,2,4]triazolo[1,5-c]pyrimidin-7-yl)-N,N-dimethyl-2-phenylacetamide]: 15.2 nM; for `COCCOc1ccc(N2CCN(C(=O)C(C)(c3ccccc3)n3ncc4c3nc(N)n3nc(-c5ccco5)nc43)CC2)cc1` (stereo not drawn) [Compound A63, 2-(5-amino-2-(furan-2-yl)-7H-pyrazolo[4,3-e][1,2,4]triazolo[1,5-c]pyrimidin-7-yl)-1-(4-(4-(2-methoxyethoxy)phenyl)piperazin-1-yl)-2-phenylpropan-1-one]: 6.2 nM.

Compound `Nc1nc2c(cnn2C(C(=O)N2CCc3ccccc3C2)c2ccccc2)c2nc(-c3ccco3)nn12` (single isomer, unassigned) [Compound B3a] displayed an IC50 of 21.6 nM.

The compound `CC(C(=O)N1CCCC1)(c1ccccc1)n1ncc2c1nc(N)n1nc(-c3ccco3)nc21` (stereo not drawn) [Compound B23, 2-(5-amino-2-(furan-2-yl)-7H-pyrazolo[4,3-e][1,2,4]triazolo[1,5-c]pyrimidin-7-yl)-2-phenyl-1-(pyrrolidin-1-yl)propan-1-one] came in with an IC50 of 24.9 nM. `COCCOc1ccc(N2CCN(C(=O)C(c3ccccc3)n3ncc4c3nc(N)n3nc(-c5ccco5)nc43)CC2)cc1` (stereo not drawn) [Compound A13, 2-(5-amino-2-(furan-2-yl)-7H-pyrazolo[4,3-e][1,2,4]triazolo[1,5-c]pyrimidin-7-yl)-1-(4-(4-(2-methoxyethoxy)phenyl)piperazin-1-yl)-2-phenylethan-1-one]: the IC50 came out at 2.9 nM. `CCC(C(=O)N1CCN(c2ccc(OCCOC)cc2)CC1)n1cc2c(nc(N)n3nc(-c4ccco4)nc23)n1` (stereo not drawn) [Compound C4, 2-(5-amino-2-(furan-2-yl)-8H-pyrazolo[4,3-e][1,2,4]triazolo[1,5-c]pyrimidin-8-yl)-1-(4-(4-(2-methoxyethoxy)phenyl)piperazin-1-yl)butan-1-one] had a half-maximal inhibitory concentration (IC50) of 140 nM. `COCCOc1ccc(N2CCN(C(=O)C(c3ccccc3)n3ncc4c3nc(N)n3nc(-c5ccco5)nc43)C(C)C2)cc1` (single isomer, unassigned) [Compound A50b]: the IC50 stood at 1 nM.

For the compound `CC(C(=O)N1CCN(c2ccc(F)cc2F)CC1)(c1ccccc1)n1ncc2c1nc(N)n1nc(-c3ccco3)nc21` (stereo not drawn) [Compound A68, 2-(5-amino-2-(furan-2-yl)-7H-pyrazolo[4,3-e][1,2,4]triazolo[1,5-c]pyrimidin-7-yl)-1-(4-(2,4-difluorophenyl)piperazin-1-yl)-2-phenylpropan-1-one], the IC50 stood at 4.4 nM. Regarding `CN1CCN(CCOc2ccc(N3CCN(C(=O)[C@@](C)(c4ccccc4)n4ncc5c4nc(N)n4nc(-c6ccco6)nc54)CC3)cc2)CC1` [Compound A81b, (R)-2-(5-amino-2-(furan-2-yl)-7H-pyrazolo[4,3-e][1,2,4]triazolo[1,5-c]pyrimidin-7-yl)-1-(4-(4-(2-(4-methylpiperazin-1-yl)ethoxy)phenyl)piperazin-1-yl)-2-phenylpropan-1-one], the IC50 is 2.6 nM.

Regarding `CC(C)CC(C(=O)N1CCN(c2ccc(F)cc2F)CC1)n1ncc2c1nc(N)n1nc(-c3ccco3)nc21` (stereo not drawn) [Compound A22, 2-(5-amino-2-(furan-2-yl)-7H-pyrazolo[4,3-e][1,2,4]triazolo[1,5-c]pyrimidin-7-yl)-1-(4-(2,4-difluorophenyl)piperazin-1-yl)-4-methylpentan-1-one], the IC50 turned out to be 1.5 nM.

The compound `COCCOc1ccc2c(c1)CCN(C(=O)C(c1ccccc1)n1ncc3c1nc(N)n1nc(-c4ccco4)nc31)C2` (stereo not drawn) [Compound B15, 2-(5-amino-2-(furan-2-yl)-7H-pyrazolo[4,3-e][1,2,4]triazolo[1,5-c]pyrimidin-7-yl)-1-(6-(2-methoxyethoxy)-3,4-dihydroisoquinolin-2(1H)-yl)-2-phenylethan-1-one] returned a 50% inhibitory concentration (IC50) of 2.2 nM. As for `CCCC(C(=O)N1CCN(c2ccc(F)cc2)CC1)n1ncc2c1nc(N)n1nc(-c3ccco3)nc21` (stereo not drawn) [Compound A45, 2-(5-amino-2-(furan-2-yl)-7H-pyrazolo[4,3-e][1,2,4]triazolo[1,5-c]pyrimidin-7-yl)-1-(4-(4-fluorophenyl)piperazin-1-yl)pentan-1-one], the IC50 amounted to 6 nM. For the compound `COCCOc1ccc(N2CCN(C(=O)C(C)n3ncc4c3nc(N)n3nc(-c5ccco5)nc43)CC2)cc1` (single isomer, unassigned) [Compound A1b, 2-(5-amino-2-(furan-2-yl)-7H-pyrazolo[4,3-e][1,2,4]triazolo[1,5-c]pyrimidin-7-yl)-1-(4-(4-(2-methoxyethoxy)phenyl)piperazin-1-yl)propan-1-one], inhibition was half-maximal at 40 nM (IC50). For the compound `CN(C)C(=O)C(C)(c1ccccc1)n1ncc2c1nc(N)n1nc(-c3ccco3)nc21` (stereo not drawn) [Compound B20, 2-(5-amino-2-(furan-2-yl)-7H-pyrazolo[4,3-e][1,2,4]triazolo[1,5-c]pyrimidin-7-yl)-N,N-dimethyl-2-phenylpropanamide], the half-maximal inhibitory concentration (IC50) is 20 nM.
